Laboratory results: paper PMC7618036, “An oral heme oxygenase inhibitor targets immunosuppressive perivascular macrophages in preclinical models of cancer” (Science translational medicine, 2025)

Legend:
[1] = tested on: CD8^+ T-cells in MMTV-PyMT tumors; assay: Flow cytometry of the TME of MMTV-PyMT tumors after 36 h treatment; type: in vivo, mouse; conditions: single-agent therapy
Description: At 36 h post treatment initiation of treatment mice were sacrificed and tumors were harvested and analyzed. (A) Schematic representing the dosing strategy. (B) The fold change of tumor growth over 36 h post initiation of treatment. (C-G) Tumors were enzyme-digested to release single cells which were analyzed for their live (7AAD^-) stromal cell composition using flow cytometry (n=5 tumors per group) (C) and CD8^+ T-cells (D). Gating strategy (left panel) and quantitation of CD8^+ T-cell subsets based on CD62L and CD44 expressions (right panel; TCM; T central memory cells, TEM; T effector memory cells, Teff; T effectors cells) (E), and the ability of the tumoral CD8^+ T-cells to secrete IFNγ post ex vivo exposure to PMA/ionomycin treatment (F). […] Scale bar is 100 µm and white arrows indicate infiltrating CD8^+ T-cells. […] Image in panel (A) was created using BioRender. Bar charts show the mean, error bars SD, and the dots show individual data points from individual tumors and mice. Gemc.; gemcitabine. * P<0.05, ** P<0.01, *** P<0.001.
MN-MCA1 sarcoma cells were orthotopically implanted into syngeneic C57Bl/6 mice for tumors. A total of 2.5 x 10^5 cells in 100 μL RPMI were injected subcutaneously into female mice. […] When tumors became palpable, volumes were measured every 2-4 days using digital caliper measurements of the long (L) and short (S) dimensions of the tumor. […]

MMTV-PyMT tumors = assay: Gemcitabine tumor growth in Lyve1^Cre and Lyve1^WT MMTV-PyMT Hmox1^fl/fl mice; type: in vivo, mouse; conditions: gemcitabine 6.6mg/kg/7days
Text: Figure 1 LYVE-1^+ PvTAMs modulate the immune landscape and resistance to chemotherapy in cancer through their expression of HO-1. (A) Representative image of a frozen section of MMTV-PyMT tumor stained with DAPI (nuclei; blue) and antibodies against F4/80 (magenta), HO-1 (red), CD31 (green). Colocalizing pixels for F4/80 and HO-1 are shown in yellow. Scale bar is 50 µm. (B-E) Schematic depicting the transgene of the HO-1 reporter mice (HO-1^Luc/eGFP) (top panel) and representative dot plot of FACs-gated live (7AAD^-) cells from enzyme-dispersed MMTV-PyMT HO-1^Luc/eGFP tumors separated based on their respective expression of HO-1 (eGFP) and CD45 (bottom panel) (B). HO-1/eGFP normalized median fluorescent intensity (MFI) of the indicated tumoral cell populations with background MFI subtracted from WT mice (n=5) (C). Representative contour plot of FACs-gated live (7AAD^-), CD45^+F4/80^+ TAMs separated based on their expression of CD206 and MHCII (left) and histograms showing the HO-1/eGFP expression of the subsets alongside the background fluorescence in WT mice (right) (D). Representative histograms of the TAM populations identified in (D) for their surface expression of LYVE-1 alongside their respective fluorescence minus one (FMO) staining (E). (F) Quantitation of the respective TAM populations identified in (D) across MMTV-PyMT tumors (n=10). […]

## Nc1ccn([C@@H]2O[C@H](CO)[C@@H](O)C2(F)F)c(=O)n1 [gemcitabine]
[1]
  abundance of CD8^+ T-cells in the TME: increase in the abundance of CD8^+ T-cells
MMTV-PyMT tumors; Lyve1^Cre mice
  tumor growth: long-term durable control of tumor growth
MMTV-PyMT tumors; Lyve1^WT mice
  tumor growth: insensitive
